Measured values: the supplement of paper PMC13380429

Experiments:
Conditions in all cases: 72 h
[1] = tested on: Calu-3; assay: drug sensitivity score (DSS) for viability; higher = more toxic; extreme values may be limits of the assay
[2] = tested on: Vero E6; assay: as above
[3] = tested on: Caco-2; assay: as above
[4] = tested on: U2OS; assay: as above
[5] = tested on: HepG2; assay: as above
[6] = tested on: Vero E6; assay: relative viability EC50 (midpoint between 100% and the lowest measured viability); higher = less toxic
[7] = tested on: Caco-2; assay: as above
[8] = tested on: U2OS; assay: as above
[9] = tested on: HepG2; assay: as above
[10] = tested on: Calu-3; assay: cell viability relative to DMSO; higher = less toxic
[11] = tested on: Vero E6; assay: as above
[12] = tested on: Caco-2; assay: as above
[13] = tested on: U2OS; assay: as above
[14] = tested on: HepG2; assay: as above
[15] = tested on: Calu-3; assay: relative viability EC50 (midpoint between 100% and the lowest measured viability); higher = less toxic

| SMILES | drug sensitivity score [1] | drug sensitivity score [2] | drug sensitivity score [3] | drug sensitivity score [4] | drug sensitivity score [5] | relative viability EC50 [6] [nM] | relative viability EC50 [7] [nM] | relative viability EC50 [8] [µM] | relative viability EC50 [9] [µM] | cell viability ([10]; 1 nM) [%] | cell viability ([10]; 10 nM) [%] | cell viability ([10]; 100 nM) [%] | cell viability ([10]; 1000 nM) [%] | cell viability ([10]; 10000 nM) [%] | cell viability ([11]; 1 nM) [%] | cell viability ([11]; 10 nM) [%] | cell viability ([11]; 100 nM) [%] | cell viability ([11]; 1000 nM) [%] | cell viability ([11]; 10000 nM) [%] | cell viability ([12]; 1 nM) [%] | cell viability ([12]; 10 nM) [%] | cell viability ([12]; 100 nM) [%] | cell viability ([12]; 1000 nM) [%] | cell viability ([12]; 10000 nM) [%] | cell viability ([13]; 1 nM) [%] | cell viability ([13]; 10 nM) [%] | cell viability ([13]; 100 nM) [%] | cell viability ([13]; 1000 nM) [%] | cell viability ([13]; 10000 nM) [%] | cell viability ([14]; 1 nM) [%] | cell viability ([14]; 10 nM) [%] | cell viability ([14]; 100 nM) [%] | cell viability ([14]; 1000 nM) [%] | cell viability ([14]; 10000 nM) [%] | relative viability EC50 [15] [µM] |
| --- | --- | --- | --- | --- | --- | --- | --- | --- | --- | --- | --- | --- | --- | --- | --- | --- | --- | --- | --- | --- | --- | --- | --- | --- | --- | --- | --- | --- | --- | --- | --- | --- | --- | --- | --- |
| O=C1NCCc2[nH]c(-c3ccncc3)cc21 | 4.6 | 7.2 | 4.2 | 5.9 | 13.6 | 1900 | 2480 | 2.77 | 0.499 | 94 | 94.6 | 94.6 | 79.5 | 53.6 | 98 | 98.2 | 98.1 | 85.7 | 13.5 | 96.1 | 93.6 | 94.2 | 94.9 | 38.5 | 95.2 | 104 | 93.6 | 95.3 | 5.8 | 91.4 | 102 | 92.4 | 33.1 | 9.5 | – |
| Nc1ncn([C@@H]2O[C@H](CO)[C@@H](O)[C@H]2O)c(=O)n1 [azacitidine] | 3.5 | 5 | 2.6 | 0 | 3.1 | 1980 | – | > 10 | – | 102 | 90.9 | 88.5 | 87.2 | 64 | 97.3 | 102 | 95.9 | 90.5 | 37.3 | 87.3 | 104 | 96.1 | 90.1 | 67.9 | 98 | 102 | 98.6 | 102 | 98.4 | 97.9 | 99.7 | 95.9 | 94.1 | 57.8 | – |
| CC[C@H](C)[C@@H]([C@@H](CC(=O)N1CCC[C@H]1[C@H](OC)[C@@H](C)C(=O)N[C@@H](Cc1ccccc1)c1nccs1)OC)N(C)C(=O)[C@@H](NC(=O)[C@H](C(C)C)N(C)C)C(C)C [dolastatin-10] | – | 39 | 31.3 | 40 | 34 | < 1 | < 1 | < 0.001 | < 0.001 | – | – | – | – | – | 38.5 | 24.6 | 18.4 | 17.9 | 9.9 | 51.5 | 40.6 | 35 | 32.2 | 20.8 | 35.8 | 22.7 | 15.4 | 15.6 | 11.1 | 24.5 | 32.5 | 32.5 | 29.4 | 22.2 | – |
| COc1cc(C(=O)N2CCC(N3CCN(C)CC3)CC2)ccc1Nc1ncc2c(n1)N(C)c1ccccc1C(=O)N2C [LRRK2-IN-1] | 4.4 | 5.7 | 2.7 | 4.2 | 3.5 | 2640 | – | – | 3.42 | 102 | 89.2 | 102 | 88.1 | 52.2 | 99.5 | 100 | 94 | 94.3 | 13.5 | 96 | 87.2 | 98.8 | 91.7 | 67.8 | 101 | 95.9 | 98.5 | 90.6 | 50.1 | 99.4 | 99.4 | 98.8 | 103 | 31.6 | – |
| C=C[C@H]1CN2CC[C@H]1C[C@@H]2[C@@H](O)c1ccnc2ccc(OC)cc12 [quinidine] | 0 | 0 | – | 0 | 0 | – | – | – | – | – | – | – | – | – | – | – | – | – | – | – | – | – | – | – | – | – | – | – | – | – | – | – | – | – | – |
| CCC(=O)O[C@@H]1CC(=O)O[C@H](C)C/C=C/C=C/[C@H](O)[C@H](C)C[C@H](CC=O)[C@H](O[C@@H]2O[C@H](C)[C@@H](O[C@H]3C[C@@](C)(O)[C@@H](OC(=O)CC)[C@H](C)O3)[C@H](N(C)C)[C@H]2O)[C@H]1OC [midecamycin] | – | 0 | 0 | 0 | 1.3 | > 10000 | > 10000 | > 10 | – | – | – | – | – | – | 105 | 97.7 | 101 | 102 | 95.2 | 94.4 | 99.1 | 103 | 91.8 | 91.4 | 97.1 | 97 | 99.2 | 96.2 | 97.6 | 103 | 93.1 | 91.5 | 98 | 74 | – |
| CC(C)NC(=O)COc1cccc(-c2nc(Nc3ccc4[nH]ncc4c3)c3ccccc3n2)c1 [KD025] | 0 | 1.5 | 1.6 | 2.7 | 0.8 | – | – | 3.29 | > 10 | 95.6 | 108 | 89.4 | 105 | 108 | 105 | 99.1 | 104 | 97.3 | 72.8 | 104 | 100 | 102 | 97.8 | 70.5 | 97.2 | 103 | 97.5 | 101 | 46.5 | 98.7 | 96.8 | 107 | 86.8 | 94.5 | > 10 |
| CCn1c(O)nnc1-c1ccc(Cl)cc1 [5-(4chlorophenyl)-4-ethyl-2,4-dihydro-3H-1,2,4-triazol-3-one] | – | 0.4 | 1.6 | 1 | 0 | > 10000 | > 10000 | > 10 | > 10 | – | – | – | – | – | 97.9 | 102 | 102 | 106 | 79.6 | 116 | 112 | 112 | 91.6 | 79.1 | 100 | 103 | 99.8 | 98.1 | 78.6 | 112 | 111 | 102 | 98.3 | 94.7 | – |
